In ChEMBL document CHEMBL2177036, “Design and validation of bicyclic iminopyrimidinones as beta amyloid cleaving enzyme-1 (BACE1) inhibitors: conformational constraint to favor a bioactive conformation” (J Med Chem, 2012):

Columns and labels:
[1] = Ratio of drug uptake in brain to plasma in rat at 10 mg/kg, po at 6 hrs; type: ADME, organism-based; design: dose 10 mg/kg, route oral; conditions: read-out: BPR
[2] = AUC (0 to 6 hrs) in rat at 10 mg/kg po; type: ADME, organism-based; design: time < 6 hr, dose 10 mg/kg, route oral; conditions: plasma
[3] = Drug uptake in rat brain at 10 mg/kg, po at 6 hrs; type: ADME, organism-based; design: dose 10 mg/kg, route oral; conditions: read-out: Drug uptake
[4] = Clearance in rat hepatocytes assessed per 10^6 cells; type: ADME, cell-based, Hepatocyte; conditions: read-out: CLH
Brain = experiment: Free drug concentration in rat brain at 10 mg/kg, po at 6 hrs; type: ADME, organism-based; design: dose 10 mg/kg, route oral; conditions: in vivo
[5] = Cmax in rat at 10 mg/kg, po at 1 hr; type: ADME, organism-based; design: dose 10 mg/kg, route oral; conditions: in vivo
[6] = Plasma concentration in rat at 10 mg/kg, po at 6 hrs; type: ADME, organism-based; design: dose 10 mg/kg, route oral
[7] = Cmax in rat at 10 mg/kg, po; type: ADME, organism-based; design: dose 10 mg/kg, route oral; conditions: in vivo
[8] = Intrinsic clearance in rat hepatocytes assessed per 10^6 cells; type: ADME, cell-based, Hepatocyte; conditions: read-out: CLH
[9] = AUC (0 to 24 hrs) in rat at 10 mg/kg po; type: ADME, organism-based; design: time < 24 hr, dose 10 mg/kg, route oral; conditions: plasma
[10] = Intrinsic clearance in human hepatocytes assessed per 10^6 cells; type: ADME, cell-based, Hepatocyte; conditions: read-out: CLH
[11] = Oral bioavailability in rat at 10 mg/kg; type: ADME, organism-based; conditions: in vivo
[12] = Apparent permeability across human Caco2 cells; type: ADME, cell-based; conditions: Caco-2
[13] = Intrinsic clearance in cynomolgus monkey hepatocytes assessed per 10^6 cells; type: ADME, cell-based, Macaca fascicularis, Hepatocyte; conditions: read-out: CLH

Compound	Kp at 6 h [1]	AUC(0-t) at 6 h [2] [µM·h]	concentration at 6 h [3] [nM]	Drug uptake(free) (Brain) [nM]	other results
Cc1cnc(N2C[C@H]3C(=O)N(C)C(=N)N[C@@]3(c3cc(-c4cccc(C#N)c4)cs3)C2)nc1	< 0.1	111	232		
CN1C(=O)[C@@H]2CN(C(=O)c3ccccc3)C[C@]2(c2cc(-c3cccc(C#N)c3)cs2)N=C1N		0.024			
CN1C(=N)N[C@@]2(c3cc(-c4ccc(F)c(C#N)c4)cs3)CN(C(=O)c3cccc(F)c3)C[C@H]2C1=O		0.3			hepatocyte CLint [4]: 46 µL/min/1e6 cells
CN1C(=N)N[C@@]2(c3cc(-c4cccc(C#N)c4)cs3)CN(c3ncc(F)cn3)C[C@H]2C1=O	0.1	31	463	11	Cmax [7]: 6.1 µM; hepatocyte CLint [8]: 13.5 µL/min/1e6 cells; AUC(0-t) at 24 h [9]: 31 µM·h; hepatocyte CLint [10]: 2 µL/min/1e6 cells; bioavailability [11]: 97%; Papp [12]: 15.1 ×10⁻⁶ cm/s; hepatocyte CLint [13]: 5.7 µL/min/1e6 cells
CN1C(=N)N[C@@]2(c3cc(-c4cccc(C#N)c4)cs3)CN(c3ncc(Cl)cn3)C[C@H]2C1=O	0.1	90	965	4	

Further lines, with some results ahead:

Kp at 6 h [1]	AUC(0-t) at 6 h [2] [µM·h]	concentration at 6 h [3] [nM]	Drug uptake(free) (Brain) [nM]	Compound	other results
	0.3			CC#Cc1cncc(-c2csc([C@]34CN(C(=O)c5cccc(F)c5)C[C@H]3C(=O)N(C)C(N)=N4)c2)c1	
	3.7			CC#Cc1cncc(-c2csc([C@]34CN(c5cccc(OC(C)C)c5)C[C@H]3C(=O)N(C)C(N)=N4)c2)c1	
1	2	58	1	CN1C(=O)[C@@H]2CN(c3ncccn3)C[C@]2(c2cc(-c3cccc(C#N)c3)cs2)N=C1N	Cmax [5]: 1000 nM; concentration at 6 h [6]: 60 nM
